In patent publication US5077195A, “Polypeptides complementary to peptides or proteins having an amino acid sequence or nucleotide coding sequence at least partially known and methods of design therefor” (Board of Reagents, The University of Texas System, priority 1986, dated 1991):
Where “and” joins values, the source holds several entries; their conditions need not be identical. Identical values can stand only once. Where no end group is shown, it is not given here.

Columns and labels:
[1] = molecular target: LHRH (Homo sapiens, UniProt P01148); test: Reverse hemolytic plaque assay, LHRH-stimulated LH release from pituitary cells; assay type: cell-based
Experimental: A reverse hemolytic plaque assay (Smith, et al.), Method in Enzymology, 124, p.
Plaques were analyzed by determining plaque area with an image analysis (Bioquant or Image Technology Corp. Model 300) of 125×-500× microscopic enlargements.

[2] = molecular target: T1, I^125 ACTH (1-39) (Homo sapiens, UniProt P01189); test: ^125 I-ACTH binding to peptide-coated microtiter wells; details: for CPM bound ^125 I-ACTH: Table 10; for CPM Bound ^125 I-ATCH: Table 11
T1 construct: I^125 ACTH (1-39) (New England Nuclear Boston, MA); purchased New England Nuclear (Boston, MA)
T1 sequence (P01189 138-176 limits assumed): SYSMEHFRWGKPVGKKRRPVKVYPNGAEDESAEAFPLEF
Experimental: Utilizing techniques described in Example 1B, polyvinyl microtiter wells were coated with 3'-5' HTCA from a 1 mM solution thereof or with BSA.
The BSA and 3'-5' HTCA coated wells were washed and then treated with one of three solutions of I^125 ACTH (1-39) (New England Nuclear Boston, MA) having different concentrations. After a forty five minute incubation period the solution was removed and the microtiter wells extensively washed. The microtiter wells were separated and assayed for iodine^125content in a Beckman Gamma 5500 gamma counter. Bound ^125 I-ACTH was measured in duplicate at three concentrations in the absence and presence of excess unlabelled ACTH.
Utilizing the cRNA sequence and HTCA sequence shown in Table 8 of Example 1A, a series of peptides having a carboxy-terminal portion of the HTCA amino acid were synthesized. A pentamer (5-mer) contained the amino acid sequence: H2 N-Phe-His-Gly-Val-Arg-COOH. A decamer (10-mer) contained the amino acid sequence: H2 N-[…]COOH. A twenty membered peptide (20-mer) contained the amino acids sequence: H2 N-[…] Val-Arg-COOH. Each of thes peptides was used to coat microtiter wells and the coated wells tested for the ability to bind ^125 I-ACTH as described in Example 1C.
A 24-mer HTCA variant (R-HTCA) with reversed amino acid sequence directionality (amino-terminal and carboxy-terminal ends being reversed) was synthesized and had the following sequence: H2 N-[…] Arg-His-Leu-His-Val-Gly-COOH. The well-coating and ^125 I-ACTH binding procedures were performed as described in Example 1-C and the resultant data shown in Table 11.

[3] = molecular target: T2, ACTH (1-24) (Homo sapiens, UniProt P01189); test: ELISA binding of ACTH to HTCA-coated microtiter wells
T2 construct: 10 ug synthetic ACTH (1-24) in PBS-Tween buffer; purchased Organon (West Orange, N.J.); host or cells: chemical synthesis
Experimental: From 1 to 25 micrograms (ug) per well of HTCA or insulin in carbonate-bicarbonate coating buffer were added to 96 well round bottom microtiter plates and incubated at 4° C. for 8 hr. The plates were then washed with phosphate buffered saline (PBS)-Tween 20 (Sigma Chemical Co., St. Louis, Mo.) buffer.
To the insulin-coated wells and to some of the HTCA-coated wells was added 10 ug synthetic ACTH (1-24) in PBS-Tween buffer. Control wells (HTCA alone) contained only PBS-Tween. The plates were incubated at room temperature for 2 hr. and then washed three times with PBS-Tween buffer. Rabbit antisera directed against the amide of synthetic ACTH 1-13 (Accurate Biochemicals, Westbury N.Y.) was added to each well and the plates were incubated for 1 hr at room temperature. Following 3 washes with PBS-Tween buffer, alkaline phosphatase-conjugated goat anti-rabbit Ig G (Miles Laboratories, Elkharbt, Ind.) in PBS-Tween buffer (1:300 dilution) was added. After inculation at room temperature for 1 hr, the plates were washed three times with PBS-Tween buffer and each well was treated with 200 microliters (ul) of p-nitrophenyl phosphate (1 mg/ml in carbonate-bicarbonate buffer) for 11/2 hr. at room temperature. The enzymatic reaction was then stopped by the addition of 3N NaOH (50 ul) to each well and the optical absorbance of p-nitrophenol the alkaline phosphatase product, was measured at 405 nm. The ACTH bound to the coated microtiter wells was measured by this enzyme-linked immunoabsorbent assay (ELISA).
A microtiter plate was prepared and treated generally as described above but was coated with 3.7 nmol/well HTCA. To each coated well was added a solution of 3.7 nmol ACTH combined with the amounts of HTCA designated on the abscissa in FIG. 4.

[4] = molecular target: T3, ^125 I-ACTH (Homo sapiens, UniProt P01189); test: Solid-phase binding of ^125 I-ACTH to 5'-3' and 3'-5' complementary peptides; details: wells coated 2 mg/ml
T3 construct: ACTH plates+immunized rabbit immunoglobulin
T3 sequence (P01189 138-176 limits assumed): T1 sequence (P01189 138-176 limits assumed)
Experimental: A solid-phase binding assay was used to determine the ability of both the 5'-to-3' and the 3'-to-5'-complementary-RNA-strand peptides (see Examples 1A and 1C) to bind ^125 I-ACTH. The peptides were diluted in phosphate-buffered saline (140 mM-NaCl/3 mM-KCl/0.1% NaN3 /20 mM-phosphate buffer, pH 7.4) to 2 mg/ml, and 0.2 ml/well was placed into poly(vinyl chloride) micro-titre plates (Becton and Dickinson, Oxnard, CA, U.S.A.). After 18 h at 4° C., unbound peptide was removed by washing three times with phosphate-buffered saline containing 0.1% bovine serum albumin (Sigma Chemical Co., St. Louis, MO, U.S.A.). ^125 I-ACTH was diluted to various concentrations with phosphate-buffered saline containing 0.1% bovine serum albumin and incubated in peptide-coated wells for 60 minutes at 4° C. […] After incubation, unbound radiolabel was washed out with phosphate-buffered saline containing 0.1% bovine serum albumin, and the radioactivity of individual wells was measured by gamma-radiation counting. The amount of specifically bound radioactivity was determined by blocking ^125 I-ACTH binding with unlabelled ACTH. Additional controls included coating wells with insulin or bovine serum albumin (2 mg/ml) before the addition of the ^125 I-ACTH.

[5] = conc ^125 I-ATCH, + excess ACTH

## C[C@H](N)C(=O)NCC(=O)N[C@H]1CSSC[C@@H](C(=O)O)NC(=O)[C@H](CO)NC(=O)[C@H]([C@@H](C)O)NC(=O)[C@H](Cc2ccccc2)NC(=O)[C@H]([C@@H](C)O)NC(=O)[C@H](CCCCN)NC(=O)[C@H](Cc2c[nH]c3ccccc23)NC(=O)[C@H](Cc2ccccc2)NC(=O)[C@H](Cc2ccccc2)NC(=O)[C@H](CC(N)=O)NC(=O)[C@H](CCCCN)NC1=O [Somatostatin, reference compound]
[1]; 5 × 10^-10 M LHRH + Somatostatin 10^-4 M, Exp. 1 (Pre)
  plaque area, percentage response to control assay: 103%

## APAEVFHGVR [10-mer]
[2]; conc ^125 I-ATCH
  CPM bound ^125 I-ACTH: 8,927 CPM and 9,072 CPM
[2]; [5]
  CPM bound ^125 I-ACTH: 345 CPM and 350 CPM

## FHGVR [5-mer, H2 N-Phe-His-Gly-Val-Arg-COOH]
[2]; 1:3 dilution ^125 I-ATCH
  CPM bound ^125 I-ACTH: 3,514 CPM and 3,655 CPM
[2]; 1:3 dilution ^125 I-ATCH, + excess ACTH
  CPM bound ^125 I-ACTH: 97 CPM and 95 CPM
[2]; 1:9 dilution ^125 I-ATCH
  CPM bound ^125 I-ACTH: 995 CPM and 993 CPM
[2]; [5]
  CPM bound ^125 I-ACTH: 233 CPM and 245 CPM

## GVHLHRAPLLAHRLAPAEVFHGVR [HTCA]
[3]; 3.7 nmol/well HTCA coating, competition with soluble HTCA
  ACTH-HTCA binding that was specific: about 90%
[3]; wells coated with 3.7 nmol/well HTCA, 3.7 nmol ACTH, read-out: Kd (Scatchard analysis) of ACTH-HTCA binding
  Kd: 1900 nM

## HRAPLLAHRLAPAEVFHGVR [20-mer]
[2]; 1:3 dilution ^125 I-ATCH
  CPM bound ^125 I-ACTH: 613 CPM and 625 CPM

## RVGHFVEAPALRHALLPARHLHVG [R-HTCA]
[2]
  binding of ^125 I-ACTH to coated wells (in words): significant affinity for ACTH
[2]; 1:9 dil. ^125 I-ATCH
  CPM Bound ^125 I-ATCH: 1,101 CPM and 1,161 CPM
[2]; 1:9 dil. ^125 I-ATCH, + Excess ACTH
  CPM Bound ^125 I-ATCH: 65 CPM and 69 CPM
[2]; conc ^125 I-ATCH
  CPM Bound ^125 I-ATCH: 10,392 CPM and 10,709 CPM

## SRAQSIGPVL [5CA-LHRH, LEU--VAL--PRO--GLY--ILE--SER--GLN--ALA--ARG--SER]
[1]; 5CA-LHRH alone 10^-5 M, Exp. 3
  plaque area, percentage response to control assay: 2.7%
[1]; 5CA-LHRH alone 10^-6 M, Exp. 3
  plaque area, percentage response to control assay: 0.5%
[1]; 5CA-LHRH alone 10^-7 M, Exp. 3
  plaque area, percentage response to control assay: 0.5%
[1]; 5 × 10^-10 M LHRH + 10^-4 M, Exp. 1 (Pre)
  plaque area, percentage response to control assay: 77%
[1]; LHRH + 10^-4 M, Exp. 2 (No)
  plaque area, percentage response to control assay: 61%
[1]; LHRH + 10^-4 M, Exp. 4 (Pre)
  plaque area, percentage response to control assay: 52%
[1]; LHRH + 10^-4 M, Exp. 5 (No)
  plaque area, percentage response to control assay: 52%
[1]; LHRH + 10^-5 M, Exp. 1 (Pre)
  plaque area, percentage response to control assay: 82%
[1]; LHRH + 10^-5 M, Exp. 2 (No)
  plaque area, percentage response to control assay: 52%
[1]; LHRH + 10^-5 M, Exp. 3 (Pre)
  plaque area, percentage response to control assay: 68%
[1]; LHRH + 10^-5 M, Exp. 4 (Pre)
  plaque area, percentage response to control assay: 63%
[1]; LHRH + 10^-5 M, Exp. 5 (No)
  plaque area, percentage response to control assay: 70%
[1]; LHRH + 10^-6 M, Exp. 1 (Pre)
  plaque area, percentage response to control assay: 110%
[1]; LHRH + 10^-6 M, Exp. 2 (No)
  plaque area, percentage response to control assay: 74%
[1]; LHRH + 10^-6 M, Exp. 3 (Pre)
  plaque area, percentage response to control assay: 98%
[1]; LHRH + 10^-6 M, Exp. 4 (Pre)
  plaque area, percentage response to control assay: 81%
[1]; LHRH + 10^-6 M, Exp. 5 (No)
  plaque area, percentage response to control assay: 81%
[1]; LHRH + 10^-7 M, Exp. 1 (Pre)
  plaque area, percentage response to control assay: 101%
[1]; LHRH + 10^-7 M, Exp. 2 (No)
  plaque area, percentage response to control assay: 74%
[1]; LHRH + 10^-7 M, Exp. 3 (Pre)
  plaque area, percentage response to control assay: 88%
[1]; LHRH + 10^-7 M, Exp. 4 (Pre)
  plaque area, percentage response to control assay: 78%
[1]; LHRH + 10^-7 M, Exp. 5 (No)
  plaque area, percentage response to control assay: 115%
[1]; LHRH + 10^-8 M, Exp. 1 (Pre)
  plaque area, percentage response to control assay: 105%
[1]; LHRH + 10^-8 M, Exp. 2 (No)
  plaque area, percentage response to control assay: 83%
[1]; LHRH + 10^-8 M, Exp. 4 (Pre)
  plaque area, percentage response to control assay: 96%
[1]; LHRH + 10^-8 M, Exp. 5 (No)
  plaque area, percentage response to control assay: 92%
[1]; LHRH + 10^-9 M, Exp. 1 (Pre)
  plaque area, percentage response to control assay: 119%
[1]; LHRH + 10^-9 M, Exp. 2 (No)
  plaque area, percentage response to control assay: 84%
[1]; LHRH + 10^-9 M, Exp. 4 (Pre)
  plaque area, percentage response to control assay: 95%
[1]; LHRH + 10^-9 M, Exp. 5 (No)
  plaque area, percentage response to control assay: 123%

## insulin: control coating protein [reference compound]
[4]
  binding on control plates relative to binding to complementary peptide plates: less than 5%
[3]; 10 ug ACTH, ELISA
  binding of ACTH (1-24) to coated microtiter wells (in words): not by insulin coated microtiter wells
